Measured values: patent publication US20230331675A1, “AROMATIC ETHYLENE COMPOUND AND PREPARATION METHOD THEREFOR, AND INTERMEDIATE, PHARMACEUTICAL COMPOSITION, AND APPLICATION THEREOF” (GUANGZHOU MAXINOVEL PHARMACEUTICALS CO., LTD., priority 2020, published 2023)

Columns and labels:
[1] = Pharmacokinetic experiment in mice; format: in vivo; settings: CD1 male mice, intravenous 2 mg/kg; for F: oral 10 mg/kg by gavage; for AUC(0-inf) / Cmax: mouse, plasma, oral 10 mg/kg by gavage (route of value not stated)
Text: Effect embodiment 2: Pharmacokinetic experiment in mice
Reagents: Acetonitrile, formic acid, methanol (HPLC grade) were purchased from Sigma-Aldrich (USA.), and pure water was purchased from Hangzhou Wahaha Group Co., Ltd. (Hangzhou, China). Other chemical reagents were all analytically pure reagents.
Experimental instruments: liquid chromatograph mass spectrometer (UPLC-MS/MS, composed of AB SCIEX TRIPLE QUAD 6500 triple quadrupole mass spectrometer, Shimadzu high performance liquid phase system. The Analyst 1.6.2 data acquisition and processing system was adopted).
Experimental animals: 6 CD1 male mice, 29-30 g before administration, were purchased from Shanghai Jihui Experimental Animal Breeding Co., Ltd., and the animal certificate number is SCXK(SH) 2017-0012 20170012001403. Before the experiment, the animals should be kept for at least 3 days to adapt to the environment. Throughout the experiment, the animals had free access to food and water.
1) Preparation of a mother liquor: A certain amount of the test drug was weighed in a clean sample bottle, then dimethyl sulfoxide was added, vortexed thoroughly for 1 min, and sonicated for 5 min to give a 4 mg/mL solution.
Drug preparation for intravenous administration: A certain amount of the above solution was taken and placed in a clean sample bottle, then polyethylene glycol-15 hydroxystearate was added, vortexed thoroughly for 1 min, then normal saline was added, and the mixture was continued vortexing for 1 min to give […] solution A.
Drug preparation for oral administration: A certain amount of the test drug was weighed and placed in a clean sample bottle, then a pre-prepared vehicle “10% (w/v) polyoxyethylene 40 hydrogenated castor+20% (w/v) sulfobutyl ether β-cyclodextrin+70% water” was added, vortexed thoroughly for 1 min, magnetically stirred for 20-25 min, and sonicated for 10 min to give 1 mg/mL solution B.
2) Intravenous administration: 3 mice were injected with 2 mg/kg (5 mL/kg) solution A through the tail vein.
Oral administration: 3 mice were given 10 mg/kg (10 mL/kg) solution B by gavage.
3) Collection and storage of plasma samples: Blood samples were collected from the orbital venous plexus of mice according to predetermined time points (5 minutes, 15 minutes, 30 minutes, 1 hour, 2 hours, 4 hours, 8 hours and 24 hours). 25 μL of blood was placed in EDTA-K2 anticoagulant tubes (placed on wet ice), and 20 μL of blood was immediately diluted with 60 μL of water and vortexed until evenly mixed. Plasma was stored in a −70° C. refrigerator for long-term storage until sample analysis.
4) Analysis of plasma samples: 200 μL of acetonitrile (containing 100 ng/mL internal standard) was added to 25 μL of plasma sample, vortexed for 10 minutes, and centrifuged at 5800 rpm for 10 minutes. 70 μL of supernatant was transferred to a 96-well injection plate. 1 μL of plasma sample was analyzed by LC-MS/MS.
5) The pharmacokinetic parameters were calculated according to the test results.

PD-1/PD-L1 = PD-1/PD-L1 (Homo sapiens (Human), UniProt Q9NZQ7); experiment: Homogeneous time-resolved fluorescence (HTRF) binding assay; settings: CisBio kit, read-out: IC50 of compounds binding to PD-1/PD-L1
PD-1/PD-L1, sequence (Q9NZQ7 19-238): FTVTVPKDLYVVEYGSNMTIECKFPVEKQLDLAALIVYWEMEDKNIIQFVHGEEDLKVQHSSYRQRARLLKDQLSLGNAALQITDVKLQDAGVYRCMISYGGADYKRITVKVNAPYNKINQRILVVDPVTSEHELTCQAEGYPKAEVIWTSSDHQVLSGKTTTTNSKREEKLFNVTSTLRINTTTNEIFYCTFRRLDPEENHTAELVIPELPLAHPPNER
Text: Effect embodiment 1: Homogenouse time-resolved fluorescence
Homogeneous time-resolved fluorescence (HTRF) binding assay was used to determine the binding ability of the compound of the present disclosure to PD-1/PD-L1.
The purchased kit (CisBio, #64CUS000C-1) contained reagents required for assays such as PD-1, PD-L1, anti-tag1-Eu, Anti-tag2-XL665, dilute buffer, and detection buffer.
1. The compound was formulated to 10 concentrations with a 3-fold gradient with 100% DMSO.
2. The DMSO solution of the compound was added to the dilute buffer, mixed thoroughly, then transferred to a 96-well plate.
3. PD-L1 was diluted with dilute buffer, then added to the above 96-well plate.
4. PD-1 was diluted with dilute buffer and added to the above 96-well plate, which was then incubated at room temperature for 30 minutes.
5. A portion of anti-tag1-Eu and a portion of anti-tag2-XL665 were added to the detection buffer, mixed thoroughly and transferred to the above 96-well plate.
6. The mixture in the above 96-well plate was incubated at room temperature for 1 to 24 hours.
7. HTRF values were read with Envision.

Cc1cc(/C=C/c2nccc(-c3ccccc3)c2C#N)c(Cl)cc1CN1CCCC[C@H]1C(=O)O [reference compound]
F [1]: 74.1%
AUC(0-inf) [1]: 8.58 µg·h/mL
Cmax [1]: 1.26 µg/mL

COc1cc(/C=C/c2cccc(-c3ccccc3)c2C)c(C(F)(F)F)cc1CN1CCCC[C@H]1C(=O)O [drawing 201]
F [1]: 72.4%
AUC(0-inf) [1]: 40.6 µg·h/mL
Cmax [1]: 1.87 µg/mL

Cc1cc(/C=C/c2cccc(-c3ccccc3)c2C#N)c(Cl)cc1CN1CCCC[C@H]1C(=O)O [drawing 205]
F [1]: 80.6%
AUC(0-inf) [1]: 16.8 µg·h/mL
Cmax [1]: 2.13 µg/mL

COc1cc(/C=C/c2nccc(-c3ccccc3)c2C)c(C(F)(F)F)cc1CN1CCCC[C@H]1C(=O)O [reference compound]
F [1]: 23.6%
AUC(0-inf) [1]: 2.3 µg·h/mL
Cmax [1]: 0.673 µg/mL

COc1cc(/C=C/c2nccc(-c3ccccc3)c2C#N)c(C(F)(F)F)cc1CN1CCCC[C@H]1C(=O)O [reference compound]
F [1]: 16.4%
AUC(0-inf) [1]: 1 µg·h/mL
Cmax [1]: 0.254 µg/mL

Cc1cc(CN2CCCC[C@H]2C(=O)O)c(OCCO)cc1/C=C/c1cccc(-c2ccccc2)c1C#N [Compound 26]
IC50 (PD-1/PD-L1): 0.0047 µM

COc1cc(/C=C/c2cccc(-c3ccccc3)c2C#N)c(C(F)(F)F)cc1CN1CCCC[C@H]1C(=O)O [drawing 203]
F [1]: 69.7%
AUC(0-inf) [1]: 7.62 µg·h/mL
Cmax [1]: 1.4 µg/mL

Cc1cc(CN2CCOC[C@H]2C(=O)O)c(C)cc1/C=C/c1cccc(-c2ccccc2)c1C#N [Compound 11, (S,E)-4-(4-(2-(2-Cyano-[1,1′-biphenyl]-3-yl)vinyl)-2,5-dimethylbenzyl)morpholine-3-carboxylic acid]
IC50 (PD-1/PD-L1): 0.0101 µM

Cc1c(/C=C/c2cc(OCCF)c(CN3CCCC[C@H]3C(=O)O)cc2C(F)(F)F)cccc1-c1ccccc1 [Compound 87, (S,E)-1-(2-(2-Fluoroethoxy)-4-(2-(2-methyl-[1,1′-biphenyl]-3-yl)vinyl)-5-(trifluoromethyl)benzyl)piperidine-2-carboxylic acid]
IC50 (PD-1/PD-L1): 0.0028 µM

N#CCOc1cc(/C=C/c2cccc(-c3ccccc3)c2C#N)c(CN2CCCC[C@H]2C(=O)O)cc1Cl [Compound 47, (S,E)-1-(5-Chloro-2-(2-(2-cyano-[1,1′-biphenyl]-3-yl)vinyl)-4-(cyanomethoxy)benzyl)piperidine-2-carboxylic acid]
IC50 (PD-1/PD-L1): > 10 µM

COc1cc(/C=C/c2cccc(-c3ccccc3)c2C#N)c(Cl)cc1CN1CCCC[C@H]1C(=O)O [Compound 57, (S,E)-1-(5-Chloro-4-(2-(2-cyano-[1,1′-biphenyl]-3-yl)vinyl)-2-methoxybenzyl)piperidine-2-carboxylic acid]
IC50 (PD-1/PD-L1): 0.0044 µM

Cc1c(/C=C/c2cc(OCc3cccc(I)c3)c(CN3CCCC[C@H]3C(=O)O)cc2C(F)(F)F)cccc1-c1ccccc1 [Compound 77]
IC50 (PD-1/PD-L1): 0.00591 µM

COCCOc1cc(/C=C/c2cccc(-c3ccccc3)c2C#N)c(C)cc1CN1CCCC[C@H]1C(=O)O [Compound 24, (S,E)-1-(4-(2-(2-Cyano-[1,1′-biphenyl]-3-yl)vinyl)-2-(2-methoxyethoxy)-5-methylbenzyl)piperidine-2-carboxylic acid]
IC50 (PD-1/PD-L1): 0.0068 µM

Cc1cc(/C=C/c2cccc(-c3ccccc3)c2C)c(Cl)cc1CN1CCNC[C@H]1C(=O)O [Compound 23, (S,E)-1-(5-Chloro-2-methyl-4-(2-(2-methyl-[1,1′-biphenyl]-3-yl)vinyl)benzyl)piperazine-2-carboxylic acid]
IC50 (PD-1/PD-L1): 0.186 µM

Cc1cc(OCCO)c(CN2CCCC[C@H]2C(=O)O)cc1/C=C/c1cccc(-c2ccccc2)c1C#N [Compound 41, (S,E)-1-(5-(2-(2-Cyano-[1,1′-biphenyl]-3-yl)vinyl)-2-(2-hydroxyethoxy)-4-methylbenzyl)piperidine-2-carboxylic acid]
IC50 (PD-1/PD-L1): 0.281 µM

N#Cc1c(/C=C/c2cc(CO)c(CN3CCOC[C@H]3C(=O)O)cc2C(F)(F)F)cccc1-c1ccccc1 [Compound 21, (S,E)-4-(4-(2-(2-Cyano-[1,1′-biphenyl]-3-yl)vinyl)-2-hydroxymethyl-5-trifluoromethylbenzyl)morpholine-3-carboxylic acid]
IC50 (PD-1/PD-L1): 0.0576 µM

Cc1cc(/C=C/c2cccc(-c3ccccc3)c2C#N)c(Cl)cc1CN1CCN(C)C[C@H]1C(=O)O [Compound 14, (S,E)-1-(5-Chloro-4-(2-(2-cyano-[1,1′-biphenyl]-3-yl)vinyl)-2-methylbenzyl)-4-methylpiperazine-2-carboxylic acid]
IC50 (PD-1/PD-L1): 0.0852 µM

Cc1cc(CN2CCCC[C@H]2C(=O)O)c(O)cc1/C=C/c1cccc(-c2ccccc2)c1C#N [Compound 31, (S,E)-1-(4-(2-(2-Cyano-[1,1′-biphenyl]-3-yl)vinyl)-2-hydroxy-5-methylbenzyl)piperidine-2-carboxylic acid]
IC50 (PD-1/PD-L1): 1.16 µM

Cc1cc(CN2CCCC[C@H]2C(=O)O)c(OCCCCC#N)cc1/C=C/c1cccc(-c2ccccc2)c1C#N [Compound 15, (S,E)-1-(4-(2-(2-Cyano-[1,1′-biphenyl]-3-yl)vinyl)-2-(4-cyanobutoxy)-5-methylbenzyl)piperidine-2-carboxylic acid]
IC50 (PD-1/PD-L1): 0.0021 µM

COc1cc(/C=C(\Br)c2cccc(-c3ccccc3)c2C)c(C)cc1CNCCO [Compound 69, (Z)-2-((4-(2-Bromo-2-(2-methyl-[1,1′-biphenyl]-3-yl)vinyl)-2-methoxy-5-methylbenzyl)amino)-1-ethanol]
IC50 (PD-1/PD-L1): 0.26 µM

[2H]C([2H])([2H])OCc1cc(/C=C/c2cccc(-c3ccccc3)c2C#N)c(C(F)(F)F)cc1CN1CCOC[C@H]1C(=O)O [Compound 54, (S,E)-4-(4-(2-(2-Cyano-[1,1′-biphenyl]-3-yl)vinyl)-2-((methoxy-d3)methyl)-5-trifluoromethylbenzyl)morpholine-3-carboxylic acid]
IC50 (PD-1/PD-L1): 0.16 µM

Cc1cc(CN2CCOC[C@H]2C(=O)O)c(OCCCCC#N)cc1/C=C/c1cccc(-c2ccccc2)c1C#N [Compound 17, (S,E)-4-(4-(2-(2-Cyano-[1,1′-biphenyl]-3-yl)vinyl)-2-(4-cyanobutoxy)-5-methylbenzyl)morpholine-3-carboxylic acid]
IC50 (PD-1/PD-L1): 0.0044 µM

Cc1c(/C=C/c2ccc(CN3CCCC[C@H]3C(=O)O)cc2C(F)(F)F)cccc1-c1ccccc1 [Compound 4, (S,E)-1-(4-(2-(2-Methyl-[1,1′-biphenyl]-3-yl)vinyl)-3-trifluoromethylbenzyl)piperidine-2-carboxylic acid]
IC50 (PD-1/PD-L1): 0.0107 µM

COc1cc(/C(F)=C/c2cccc(-c3ccccc3)c2C)c(C(F)(F)F)cc1CNCCO [Compound 65, (Z)-2-((4-(1-Fluoro-2-(2-methyl-[1,1′-biphenyl]-3-yl)vinyl)-2-methoxy-5-trifluoromethylbenzyl)amino)-1-ethanol]
IC50 (PD-1/PD-L1): 0.048 µM

Cc1c(/C=C/c2cc(OCc3cc(I)ccn3)c(CN3CCCC[C@H]3C(=O)O)cc2C(F)(F)F)cccc1-c1ccccc1 [Compound 80, (S,E)-1-(2-((4-Iodopyridin-2-yl)methoxy)-4-(2-(2-methyl-[1,1′-biphenyl]-3-yl)vinyl)-5-(trifluoromethyl)benzyl)piperidine-2-carboxylic acid]
IC50 (PD-1/PD-L1): 0.00397 µM

CS(=O)(=O)CCCOc1cc(/C=C/c2cccc(-c3ccccc3)c2C#N)c(CN2CCCC[C@H]2C(=O)O)cc1Cl [Compound 36]
IC50 (PD-1/PD-L1): > 10 µM
